# Reference: paper PMC6032384 (International Journal of Molecular Sciences, 2018)
# Where two headings read alike, the source gives them in different places.
# Tests used:
# HL-60 cells [1] = format: cell-based, human
# Protocol: The internucleosomal DNA fragmentation and cell cycle distribution were assessed in HL-60 cells after 24 and 48 h of incubation with the [Ru(PPh3)2(Thy)(bipy)]PF6 complex in a DNA content-based assay using the dye propidium iodide (PI) and flow cytometry (Table 3). All DNA with a subdiploid size (sub-G0/G1) were considered to be fragmented. At concentrations of 1, 2, and 4 μM, the complex led to, respectively, 19.4%, 30.1%, and 36.2% DNA fragmentation after 24 h of incubation and to 12.5%, 26.7%, and 58.2% DNA fragmentation after 48 h of incubation.
# (§1) Light scattering features were determined by flow cytometry. The internucleosomal DNA fragmentation and cell cycle distribution were determined according to Nicoletti et al.. For apoptosis measurements, a FITC Annexin V Apoptosis Detection Kit I (BD Biosciences, San Jose, CA, USA) was used, and the analysis was performed, according to the manufacturer’s instructions. A protection assay using the pan-caspase inhibitor Z-VAD(OMe)-FMK (Cayman Chemical, Ann Arbor, MI, USA) was also evaluated. The mitochondrial transmembrane potential was determined by the retention of the dye rhodamine 123 [28]. The levels of ROS were measured, as previously described, using 2′,7′-dichlorofluorescin diacetate (DCF-DA, Sigma-Aldrich Co.). At least 1 × 10^4 events were recorded per sample using a BD LSRFortessa cytometer along with BD FACSDiva Software (BD Biosciences) and Flowjo Software 10 (Flowjo LCC, Ashland, OR, USA). The cellular debris was omitted from the analysis.
# [2] = test system: BAD gene knockout immortalized mouse embryonic fibroblasts (BAD KO SV40 MEF); experiment: Alamar blue (AB) cytotoxicity assay, BAD KO SV40 MEF; format: cell-based; conditions: 72 h
# [3] = test system: B16-F10, HepG2, K562, and HL-60; parameters: method as in doi:10.1039/C7NJ04368F; conditions: small panel of cancer cells (B16-F10, HepG2, K562, and HL-60), previous study; cited from earlier work
# [4] = test system: PBMC (human peripheral blood mononuclear cell); experiment: Alamar blue (AB) cytotoxicity assay, PBMC noncancerous cells; format: cell-based; conditions: PBMC non-cancer cells, 72 h
# HL-60 cells [5] = experiment: ROS levels (DCF-DA, flow cytometry); format: cell-based, human; conditions: 1 or 3 h of incubation, data not shown
# Protocol: The induction of ROS production is also an important mechanism for inducing apoptosis.
# as §1
smiles,measurement,setting,value
"Cc1c[nH]c(=O)[n-]c1=O.F[P-](F)(F)(F)(F)F.[Ru+2].c1ccc(-c2ccccn2)nc1.c1ccc(P(c2ccccc2)c2ccccc2)cc1.c1ccc(P(c2ccccc2)c2ccccc2)cc1 [CRT, [Ru(PPh3)2(Thy)(bipy)]PF6]",DNA content G0/G1,"HL-60 cells [1]; 1 µM, 24 h",30.5 ± 4.8 %
same,DNA content G2/M,"HL-60 cells [1]; 1 µM, 24 h",18.5 ± 0.7%
same,DNA content S,"HL-60 cells [1]; 1 µM, 24 h",11.5 ± 1.7%
same,DNA content Sub-G0/G1 (DNA fragmentation),"HL-60 cells [1]; 1 µM, 24 h",19.4 ± 3.9 %
same,DNA content Sub-G0/G1 (DNA fragmentation),"HL-60 cells [1]; 1 µM, 24 h, listed as [Ru(PPh3)2(Thy)(bipy)]PF6 complex",19.4%
same,DNA content G0/G1,"HL-60 cells [1]; 1 µM, 48 h",41.2 ± 9.6 %
same,DNA content G2/M,"HL-60 cells [1]; 1 µM, 48 h",10.8 ± 2.5%
same,DNA content S,"HL-60 cells [1]; 1 µM, 48 h",11.2 ± 2.4%
same,DNA content Sub-G0/G1 (DNA fragmentation),"HL-60 cells [1]; 1 µM, 48 h",12.5 ± 3.5 %
same,DNA content Sub-G0/G1 (DNA fragmentation),"HL-60 cells [1]; 1 µM, 48 h, listed as [Ru(PPh3)2(Thy)(bipy)]PF6 complex",12.5%
same,DNA content G0/G1,"HL-60 cells [1]; 2 µM, 24 h",38.7 ± 2.2 %
same,DNA content G2/M,"HL-60 cells [1]; 2 µM, 24 h",17.9 ± 4.4%
same,DNA content S,"HL-60 cells [1]; 2 µM, 24 h",7.8 ± 1.5 %
same,DNA content Sub-G0/G1 (DNA fragmentation),"HL-60 cells [1]; 2 µM, 24 h",30.1 ± 7.9 %
same,DNA content Sub-G0/G1 (DNA fragmentation),"HL-60 cells [1]; 2 µM, 24 h, listed as [Ru(PPh3)2(Thy)(bipy)]PF6 complex",30.1%
same,DNA content G0/G1,"HL-60 cells [1]; 2 µM, 48 h",42.6 ± 4.9 %
same,DNA content G2/M,"HL-60 cells [1]; 2 µM, 48 h",14.4 ± 2.5%
same,DNA content S,"HL-60 cells [1]; 2 µM, 48 h",10.5 ± 0.8 %
same,DNA content Sub-G0/G1 (DNA fragmentation),"HL-60 cells [1]; 2 µM, 48 h",26.7 ± 7.0 %
same,DNA content Sub-G0/G1 (DNA fragmentation),"HL-60 cells [1]; 2 µM, 48 h, listed as [Ru(PPh3)2(Thy)(bipy)]PF6 complex",26.7%
same,DNA content G0/G1,"HL-60 cells [1]; 4 µM, 24 h",36.3 ± 3.1 %
same,DNA content G2/M,"HL-60 cells [1]; 4 µM, 24 h",13.2 ± 4.1%
same,DNA content S,"HL-60 cells [1]; 4 µM, 24 h",10.4 ± 2.4%
same,DNA content Sub-G0/G1 (DNA fragmentation),"HL-60 cells [1]; 4 µM, 24 h",36.2 ± 9.5 %
same,DNA content Sub-G0/G1 (DNA fragmentation),"HL-60 cells [1]; 4 µM, 24 h, listed as [Ru(PPh3)2(Thy)(bipy)]PF6 complex",36.2%
same,DNA content G0/G1,"HL-60 cells [1]; 4 µM, 48 h",28.4 ± 5.9 %
same,DNA content G2/M,"HL-60 cells [1]; 4 µM, 48 h",5.5 ± 2.6 %
same,DNA content S,"HL-60 cells [1]; 4 µM, 48 h",4.4 ± 1.2 %
same,DNA content Sub-G0/G1 (DNA fragmentation),"HL-60 cells [1]; 4 µM, 48 h",58.2 ± 8.8 %
same,DNA content Sub-G0/G1 (DNA fragmentation),"HL-60 cells [1]; 4 µM, 48 h, listed as [Ru(PPh3)2(Thy)(bipy)]PF6 complex",58.2%
same,IC50,[2],2400 nM
same,IC50,[3],< 2000 nM
same,IC50,[4],1700 nM
same,ROS levels,HL-60 cells [5],did not induce a significant increase
